# Results taken from US7968098B2, “HLA-A24-binding KIF-derived peptide” (Kurume University, priority 2006, dated 2011).
# Read-outs that look alike come from different tables or passages of the source.
# Columns and labels:
# [1] = system: PBMCs of HLA-A24+ glioma patients; type: cell-based, human; settings: for IFN-γ: vs HIV peptide
# [2] = system: anti-peptide immunoglobulin G (IgG) in plasma; test: Anti-peptide IgG in plasma measured by the Luminex system; type: binding, human; settings: for Positive cases/total cases, Patients: Table 3, IgGs reactive to peptide in plasma of glioma patients; for Positive cases/total cases, Healthy donors: Table 3, IgGs reactive to peptide in plasma of healthy donors; for Positive cases/total cases, Total: Table 3, patients plus healthy donors; for Total (IgG-positive cases/total cases): positive = >1.25 times no peptide control
# Experimental: The levels of anti-peptide immunoglobulin G (IgG) were measured by the Luminex™ system as previously reported (Komatsu N et al, Scand J Clin Invest 2004; 64: 1-11). In brief, plasma was incubated with 25 μl of peptide-coupled color-coded beads (Luminex Corp., Austin, Tex., USA) for 2 h at room temperature on a plate shaker. After incubation, the mixture was washed with a vacuum manifold apparatus and incubated with 100 μl of biotinylated goat anti-human IgG (BA-3080, Vector Laboratories, Burlingame, Calif., USA) for 1 h at room temperature. The plate was then washed, and 100 μl of streptavidin-PE (S-866, Molecular Probes, Eugene, Oreg., USA) was added to each well and was incubated for 30 min at room temperature on a plate shaker. The bound beads were washed three times followed by the addition of 100 μl of Tween-PBS to each well. Fifty μl of each sample was then examined using the Luminex™ system.
# Next, the abilities of the KIF-derived peptides to be recognized by IgGs of glioma patients were examined, because IgGs reactive to CTL-directed peptides are detectable in the plasma of patients with different types of cancer (Nakatsura T et al, Eur J Immunol 32: 826-836, 2002), along with that levels of IgG well correlated with clinical responses of patients who received peptide vaccination as reported previously (Mine T et al, Clin Cancer Res 10: 929-937, 2004; Yajima N et al, Clin Cancer Res 11: 5900-5911, 2005). IgGs reactive to a corresponding peptide were judged to be significant when the immunofluorescence intensity in 1:100-diluted plasma exceeded 1.25 times that of the control samples with no peptides. […] Based on these findings, these 8 KIF peptides (3 for KIF1C, 3 for KIF3C, and 2 for KIF21B) were the focus of the following experiments.
# [3] = Healthy donor 2, 1:100-diluted plasma
# [4] = Healthy donor 3, 1:100-diluted plasma
# [5] = Healthy donor 4, 1:100-diluted plasma
# [6] = Healthy donor 5, 1:100-diluted plasma
# [7] = glioma Patient 1, 1:100-diluted plasma
# [8] = glioma Patient 2, 1:100-diluted plasma
# [9] = glioma Patient 3, 1:100-diluted plasma
# [10] = glioma Patient 4, 1:100-diluted plasma
# [11] = glioma Patient 7, 1:100-diluted plasma
# [12] = glioma Patient 8, 1:100-diluted plasma
# [13] = glioma Patient 9, 1:100-diluted plasma
# [14] = Healthy donor 1, 1:100-diluted plasma
# [15] = Healthy donor 6, 1:100-diluted plasma
# [16] = Healthy donor 7, 1:100-diluted plasma
# [17] = Healthy donor 8, 1:100-diluted plasma
# [18] = Healthy donor 9, 1:100-diluted plasma
# [19] = glioma Patient 5, 1:100-diluted plasma
# [20] = glioma Patient 6, 1:100-diluted plasma
# [21] = glioma Patient 10, 1:100-diluted plasma
sequence,measurement,setting,value
RFYIQMCTEL (Flu virus-derived peptide) [reference compound],Total (patients with induction of peptide-reactive CTLs),"[1]; HLA-A24+ glioma patients, positive = P<0.05 and >100 pg/ml IFN-γ over HIV peptide",3/10
same,IFN-γ,"[1]; PBMCs of HLA-A24+ glioma Patient 1, 10 μg/ml peptide",29 pg/mL
same,IFN-γ,"[1]; PBMCs of HLA-A24+ glioma Patient 2, 10 μg/ml peptide",0 pg/mL
same,IFN-γ,"[1]; PBMCs of HLA-A24+ glioma Patient 4, 10 μg/ml peptide",0 pg/mL
same,IFN-γ,"[1]; PBMCs of HLA-A24+ glioma Patient 7, 10 μg/ml peptide",95 pg/mL
same,IFN-γ,"[1]; PBMCs of HLA-A24+ glioma Patient 8, 10 μg/ml peptide",0 pg/mL
same,IFN-γ,"[1]; PBMCs of HLA-A24+ glioma Patient 9, 10 μg/ml peptide",0 pg/mL
same,IFN-γ,"[1]; PBMCs of HLA-A24+ glioma Patient 10, 10 μg/ml peptide",0 pg/mL
IYQEEIRDL (KIF3C 147-155 peptide),"Positive cases/total cases, Patients",[2],0/10
same,"Positive cases/total cases, Healthy donors",[2],1/10
same,"Positive cases/total cases, Total",[2],1/20
VYRDIGEEML (KIF1C 73-82 peptide),Immunofluoresence intensity,[2]; [3],19.5
same,Immunofluoresence intensity,[2]; [4],64.5
same,Immunofluoresence intensity,[2]; [5],29.5
same,Immunofluoresence intensity,[2]; [6],50.0
same,Total (IgG-positive cases/total cases),"[2]; Table 2, glioma patients",3/10
same,Total (IgG-positive cases/total cases),"[2]; Table 2, healthy donors",6/10
same,"Positive cases/total cases, Patients",[2],3/10
same,"Positive cases/total cases, Healthy donors",[2],6/10
same,"Positive cases/total cases, Total",[2],9/20
same,Immunofluoresence intensity,[2]; [7],57.8
same,Immunofluoresence intensity,[2]; [8],80.5
same,Immunofluoresence intensity,[2]; [9],46.8
same,Immunofluoresence intensity,[2]; [10],17.5
same,Immunofluoresence intensity,[2]; [11],68.5
same,Immunofluoresence intensity,[2]; [12],11.5
same,Immunofluoresence intensity,[2]; [13],11.0
IYQEEIRDLL (KIF3C 147-156 peptide),"Positive cases/total cases, Patients",[2],0/10
same,"Positive cases/total cases, Healthy donors",[2],1/10
same,"Positive cases/total cases, Total",[2],1/20
NYEETLSTL (KIF1C 331-339 peptide),Immunofluoresence intensity,[2]; [14],70.0
same,Immunofluoresence intensity,[2]; [3],13.5
same,Immunofluoresence intensity,[2]; [4],29.0
same,Immunofluoresence intensity,[2]; [5],16.5
same,Immunofluoresence intensity,[2]; [6],35.0
same,Immunofluoresence intensity,[2]; [15],40.0
same,Immunofluoresence intensity,[2]; [16],233.0
same,Immunofluoresence intensity,[2]; [17],4133.0
same,Immunofluoresence intensity,[2]; [18],22.5
same,Immunofluoresence intensity,"[2]; Healthy donor 10, 1:100-diluted plasma",62.5
same,Total (IgG-positive cases/total cases),"[2]; Table 2, glioma patients",0/10
same,Total (IgG-positive cases/total cases),"[2]; Table 2, healthy donors",0/10
same,"Positive cases/total cases, Patients",[2],0/10
same,"Positive cases/total cases, Healthy donors",[2],0/10
same,"Positive cases/total cases, Total",[2],0/20
same,Immunofluoresence intensity,[2]; [7],33.5
same,Immunofluoresence intensity,[2]; [8],39.5
same,Immunofluoresence intensity,[2]; [9],22.0
same,Immunofluoresence intensity,[2]; [10],10.5
same,Immunofluoresence intensity,[2]; [19],53.5
same,Immunofluoresence intensity,[2]; [20],86.5
same,Immunofluoresence intensity,[2]; [11],35.5
same,Immunofluoresence intensity,[2]; [12],8.5
same,Immunofluoresence intensity,[2]; [13],5.5
same,Immunofluoresence intensity,[2]; [21],485.4
GYLIIENFI (KIF3C 629-637 peptide),"Positive cases/total cases, Patients",[2],0/10
same,"Positive cases/total cases, Healthy donors",[2],1/10
same,"Positive cases/total cases, Total",[2],1/20
"TYGPVFMCL [EBV, reference compound]",Total (patients with induction of peptide-reactive CTLs),[1],1/10
CYEVALADF (KIF1C 756-764 peptide),Immunofluoresence intensity,[2]; [14],87.3
same,Immunofluoresence intensity,[2]; [3],14.0
same,Immunofluoresence intensity,[2]; [4],46.8
same,Immunofluoresence intensity,[2]; [5],20.0
same,Immunofluoresence intensity,[2]; [6],40.3
same,Immunofluoresence intensity,[2]; [15],47.5
same,Immunofluoresence intensity,[2]; [16],196.0
same,Immunofluoresence intensity,[2]; [17],3893.5
same,Immunofluoresence intensity,[2]; [18],27.0
same,Total (IgG-positive cases/total cases),"[2]; Table 2, glioma patients",0/10
same,Total (IgG-positive cases/total cases),"[2]; Table 2, healthy donors",1/10
same,"Positive cases/total cases, Patients",[2],0/10
same,"Positive cases/total cases, Healthy donors",[2],1/10
same,"Positive cases/total cases, Total",[2],1/20
same,Immunofluoresence intensity,[2]; [7],36.5
same,Immunofluoresence intensity,[2]; [8],45.0
same,Immunofluoresence intensity,[2]; [9],28.8
same,Immunofluoresence intensity,[2]; [10],11.5
same,Immunofluoresence intensity,[2]; [19],58.0
same,Immunofluoresence intensity,[2]; [20],185.8
same,Immunofluoresence intensity,[2]; [11],40.3
same,Immunofluoresence intensity,[2]; [12],6.5
same,Immunofluoresence intensity,[2]; [13],7.5
same,Immunofluoresence intensity,[2]; [21],658.0
AFIPGRPMLL (KIF21B 670-679 peptide),"Positive cases/total cases, Patients",[2],2/10
same,"Positive cases/total cases, Healthy donors",[2],2/10
same,"Positive cases/total cases, Total",[2],4/20
RFVPPHDCKL (KIF1C 968-977 peptide),Immunofluoresence intensity,[2]; [14],117.0
same,Immunofluoresence intensity,[2]; [3],23.5
same,Immunofluoresence intensity,[2]; [5],33.0
same,Immunofluoresence intensity,[2]; [6],58.5
same,Immunofluoresence intensity,[2]; [18],32.3
same,Total (IgG-positive cases/total cases),"[2]; Table 2, glioma patients",4/10
same,Total (IgG-positive cases/total cases),"[2]; Table 2, healthy donors",5/10
same,"Positive cases/total cases, Patients",[2],4/10
same,"Positive cases/total cases, Healthy donors",[2],5/10
same,"Positive cases/total cases, Total",[2],9/20
same,Immunofluoresence intensity,[2]; [7],77.0
same,Immunofluoresence intensity,[2]; [10],27.0
same,Immunofluoresence intensity,[2]; [19],97.0
same,Immunofluoresence intensity,[2]; [11],74.8
same,Immunofluoresence intensity,[2]; [12],12.5
same,Immunofluoresence intensity,[2]; [13],19.5
KYCSHSGLVF (KIF21B 473-482 peptide),"Positive cases/total cases, Patients",[2],2/10
same,"Positive cases/total cases, Healthy donors",[2],2/10
same,"Positive cases/total cases, Total",[2],4/20
EYIRVRQDL (KIF3C 607-615 peptide),"Positive cases/total cases, Patients",[2],2/10
same,"Positive cases/total cases, Healthy donors",[2],3/10
same,"Positive cases/total cases, Total",[2],5/20
AFIPGRPML (KIF21B 670-678 peptide),"Positive cases/total cases, Patients",[2],2/10
same,"Positive cases/total cases, Healthy donors",[2],2/10
same,"Positive cases/total cases, Total",[2],4/20
NYVPGLTPCL (KIF21B 731-740 peptide),"Positive cases/total cases, Patients",[2],1/10
same,"Positive cases/total cases, Healthy donors",[2],1/10
same,"Positive cases/total cases, Total",[2],2/20
RYRAENIMFL (KIF3C 702-711 peptide),"Positive cases/total cases, Patients",[2],2/10
same,"Positive cases/total cases, Healthy donors",[2],5/10
same,"Positive cases/total cases, Total",[2],7/20
QYLVRASYL (KIF3C 137-145 peptide),"Positive cases/total cases, Patients",[2],2/10
same,"Positive cases/total cases, Healthy donors",[2],1/10
same,"Positive cases/total cases, Total",[2],3/20
SYDESLSTL (KIF3C 347-355 peptide),"Positive cases/total cases, Patients",[2],0/10
same,"Positive cases/total cases, Healthy donors",[2],0/10
same,"Positive cases/total cases, Total",[2],0/20
VYQIPQRRRL (KIF1C 725-734 peptide),Immunofluoresence intensity,[2]; [14],99.5
same,Immunofluoresence intensity,[2]; [3],19.5
same,Immunofluoresence intensity,[2]; [4],66.8
same,Immunofluoresence intensity,[2]; [5],30.5
same,Immunofluoresence intensity,[2]; [6],52.5
same,Total (IgG-positive cases/total cases),"[2]; Table 2, glioma patients",4/10
same,Total (IgG-positive cases/total cases),"[2]; Table 2, healthy donors",5/10
same,"Positive cases/total cases, Patients",[2],3/10
same,"Positive cases/total cases, Healthy donors",[2],5/10
same,"Positive cases/total cases, Total",[2],8/20
same,Immunofluoresence intensity,[2]; [7],65.5
same,Immunofluoresence intensity,[2]; [8],85.3
same,Immunofluoresence intensity,[2]; [9],61.3
same,Immunofluoresence intensity,[2]; [10],19.5
same,Immunofluoresence intensity,[2]; [19],98.5
same,Immunofluoresence intensity,[2]; [12],10.0
same,Immunofluoresence intensity,[2]; [13],9.3
VYIKDLSSF (KIF3C 174-182 peptide),"Positive cases/total cases, Patients",[2],1/10
same,"Positive cases/total cases, Healthy donors",[2],2/10
same,"Positive cases/total cases, Total",[2],3/20
